From US11541132B2, “Radiolabeled compounds” (Hoffmann-La Roche Inc., priority 2017, dated 2023) come the findings set out here.

Experiment [1] concerns the target T1, aSyn aggregates in A30P transgenic mouse brain tissue (Homo sapiens, UniProt P37840, A30P).
T1 construct: from tissue; host or cells: brain sections (midbrain and pons as ROI) of A30P transgenic mice, line B6.D2-Tg(Thy1-SNCA*30P)31Pjk
Description: aSyn in vitro binding assay (autoradiography of tritiated compounds). More on the design: species or system mutant human aSyn gene). The protocol:
(§1) Ten μm thick A30P transgenic mouse brain sections and human PD brain sections are generated with a cryostat (Leica CM3050) at −17° C. chamber temperature and −15° C. object temperature. Sections are transferred to Histobond+ microscope slides (Marienfeld Laboratory Glasware). After drying for 3 hours at room temperature the sections are stored at −20° C. The sections are incubated with the radioligand (0.3-30 nM) and the respective cold compound (at various concentrations) in 50 mM Tris buffer, pH 7.4 at room temperature for 30 min. After washing 3×10 min at 4° C. in 50 mM Tris buffer, pH 7.4 and 3 quick dips in H2O dist. at 4° C. the sections are dried at 4° C. for 3 h. The sections are placed in a FujiFilm Cassette, exposed to an Imaging Plate (BAS-IP TR 2025) for five days and afterwards scanned with a FujiFilm IP reader (BAS-5000) with a resolution of […] per pixel.
Antibody staining of sections is performed after exposure and scanning of the tissue sections undergoing classical autoradiographical analysis. Brain sections were hydrated in PBS and blocked in 1% bovine serum albumin, 1% ovalbumin and 1% normal goat serum in PSB for 20 min. This is followed by overnight incubation at 4° C. with a mixture of anti-aSyn pS129 monoclonal antibody (generated in-house; 1 μg/mL) in blocking buffer. […]

For experiment [2], the target named is T2, aSyn aggregates (LBs) in human PD brain tissue (Homo sapiens, UniProt P37840).
T2 construct: tissue Banner Sun Health Research Institute; host or cells: human PD brain (cortical) tissue sections
As to the kind of experiment: aSyn in vitro binding assay on human PD tissue sections. The settings on record: higher magnification. The protocol: Human PD brain tissue blocks were obtained from the Banner Sun Health Research Institute (Sun City, Ariz., USA). Pathological diagnosis of PD was made according to standard criteria based on neuropathological data.
as §1
Antibody staining of sections is performed after exposure and scanning of the tissue sections undergoing classical autoradiographical analysis. Brain sections were hydrated in PBS and blocked in 1% bovine serum albumin, 1% ovalbumin and 1% normal goat serum in PSB for 20 min. […]

For experiment [3], the target named is native Aβ aggregates in human AD brain sections (Homo sapiens, UniProt P05067). Description: Aβ in vitro binding assay (autoradiography). The settings on record: human AD cortical tissue section, 3 nM (FIG. 8).
Description: Ten μm thick A30P transgenic mouse brain sections and human PD brain sections are generated with a cryostat (Leica CM3050) at −17° C. chamber temperature and −15° C. object temperature. Sections are transferred to Histobond+ microscope slides (Marienfeld Laboratory Glasware). After drying for 3 hours at room temperature the sections are stored at −20° C. The sections are incubated with the radioligand (0.3-30 nM) and the respective cold compound (at various concentrations) in 50 mM Tris buffer, pH 7.4 at room temperature for 30 min. After washing 3×10 min at 4° C. in 50 mM Tris buffer, pH 7.4 and 3 quick dips in H2O dist. at 4° C. the sections are dried at 4° C. for 3 h. The sections are placed in a FujiFilm Cassette, exposed to an Imaging Plate (BAS-IP TR 2025) for five days and afterwards scanned with a FujiFilm IP reader (BAS-5000) with a resolution of 25 μM per pixel.
This direct in vitro binding assay assesses the affinity of radiotracers for native Aβ aggregates in tissue sections by autoradiography.
Experiment [4] has as its target T3, native Aβ aggregates in human AD brain tissue sections (Homo sapiens, UniProt P05067).
T3 construct: native Aβ aggregates in human AD brain tissue samples; from tissue; host or cells: human AD brain tissue sections
Description: Aβ in vitro displacement assay (selectivity counterscreen, [3H]Example 3 autoradiography). Format: binding. The conditions noted are these: read-out: sel. counterscreen PCT_INHIB AD @ 1 μM (% displacement of [3H]Example 3).

In experiment [5] the target is T4, native aSyn aggregates in A30P transgenic mouse brain sections (Homo sapiens, UniProt P37840, A30P).
T4 construct: from tissue; host or cells: brain sections (midbrain and pons as ROI) of A30P transgenic mice, line B6.D2-Tg(Thy1-SNCA*30P)31Pjk
Description: aSyn in vitro displacement assay ([3H]Example-3 autoradiography). The experiment is classed as binding, mutant human aSyn gene). The conditions noted are these: read-out: PCT_INHIB A30P @ 1 μM (% displacement of [3H]Example-3).

The mark [6] stands for this setting: 1 μM compound, 3 nM [3H]Example 3, human AD brain sections.
Setting [7] is: 1 μM compound, 3 nM [3H]Example-3, A30P transgenic mouse brain sections.

Where two headings read alike, the source gives them in different places.

T3 sequence (P05067 672-713 limits assumed): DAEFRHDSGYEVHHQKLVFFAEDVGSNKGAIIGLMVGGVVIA
Chain of native Aβ aggregates in human AD brain sections (P05067 672-713 limits assumed): as above

Consider `[3H]C([3H])([3H])Oc1ccc(C(=O)Nc2ccc(N3CCN(c4ccccn4)CC3)cc2)cc1` [[^3H]Example-3, 4-[^3H3] Methoxy-N-[4-(4-pyridin-2-ylpiperazin-1-yl)phenyl]benzamide], for which the “co-localization of radioligand binding and aSyn antibody pS129 staining” value in experiment [1] (A30P transgenic mouse brain sections) is listed as “excellent co-localization”. The “binding to aSyn aggregates in A30P transgenic mouse brain tissue” value in experiment [1] (radioligand 3 nM (FIG. 1), midbrain and pons) is “strong binding”. For the same compound, the “co-localization of autoradiogram hot spots with LBs stained by aSyn mAb pS129” value in experiment [2] is given as “good co-localization”.

For the compound `[3H]C([3H])(F)Oc1ccc(C(=O)Nc2ccc(N3CCN(c4cccnc4)CC3)cc2)cc1` [[^3H]Example-134, [^3H]4-(Fluoromethoxy)-N-(4-(4-(pyridin-3-yl)piperazin-1-yl)phenyl)benzamide], the “co-localization of radioligand binding and Aβ mAb staining” value in experiment [3] is “excellent co-localization”.

For `COc1ccc(C(=O)Nc2ccc(N3CCN(c4ccc(C#N)cc4)CC3)cc2)cn1` [Example 157, N-(4-(4-(4-Cyanophenyl)piperazin-1-yl)phenyl)-6-methoxynicotinamide], the inhibition at 1 µM in experiment [4] (setting [6]) is 92%; in experiment [5] (setting [7]), 91%.

Regarding `COc1ccc(C(=O)Nc2ccc(N3CCN(c4cnc(C#N)cn4)CC3)cc2)cc1` [Example 147, N-(4-(4-(5-Cyanopyrazin-2-yl)piperazin-1-yl)phenyl)-4-methoxybenzamide], the inhibition at 1 µM came to 91% in experiment [4] (setting [6]) and 88% in experiment [5] (setting [7]).

Regarding `COc1cccc(C(=O)Nc2ccc(N3CCN(c4ccc(C#N)cn4)CC3)cc2)n1` [Example 91, N-(4-(4-(5-Cyanopyridin-2-yl)piperazin-1-yl)phenyl)-6-methoxypicolinamide], the inhibition at 1 µM in experiment [4] (setting [6]) was 54%; in experiment [5] (setting [7]), 85%.

As to `O=C(Nc1ccc(N2CCN(c3cccnc3)CC2)cc1)c1ccc(O)cc1` [Example 138, 4-Hydroxy-N-[4-(4-pyridin-3-ylpiperazin-1-yl)phenyl]benzamide], the inhibition at 1 µM in experiment [4] (setting [6]) stood at 89%; in experiment [5] (setting [7]), 82%.

Regarding `CN1CCOc2cc(C(=O)Nc3ccc(N4CCN(c5ccccn5)CC4)cc3)ccc21` [Example 42, 4-Methyl-N-(4-(4-(pyridin-2-yl)piperazin-1-yl)phenyl)-3,4-dihydro-2H-benzo[b][1,4]oxazine-7-carboxamide], the inhibition at 1 µM in experiment [4] (setting [6]) turned out to be 94%; in experiment [5] (setting [7]), 91%.

Consider `N#Cc1ccc(N2CCN(c3ncc(NC(=O)c4ccc(N5CCOCC5)cc4)cn3)CC2)nc1` [Example 99, N-(2-(4-(5-Cyanopyridin-2-yl)piperazin-1-yl)pyrimidin-5-yl)-4-morpholinobenzamide], for which the inhibition at 1 µM is 86% in experiment [4] (setting [6]) and 82% in experiment [5] (setting [7]).

Turning to `CN(C)c1ccc(C(=O)Nc2ccc(N3CCN(c4ccccn4)CC3)cc2)cc1` [Example 7, 4-(Dimethylamino)-N-(4-(4-(pyridin-2-yl)piperazin-1-yl)phenyl)benzamide], the inhibition at 1 µM is 108% in experiment [4] (setting [6]) and 90% in experiment [5] (setting [7]).

As to `O=C(Nc1ccc(N2CCN(c3ccccn3)CC2)cc1)c1ccc2nccn2c1` [Example 17, N-(4-(4-(Pyridin-2-yl)piperazin-1-yl)phenyl)imidazo[1,2-a]pyridine-6-carboxamide], the values for the inhibition at 1 µM in experiment [4] (setting [6]) and in experiment [5] (setting [7]) were 98% and 87%, respectively.

Turning to `COc1ccc(C(=O)Nc2ccc(N3CCN(c4ccccc4C#N)CC3)cc2)cc1` [Example 70, N-{4-[4-(2-Cyanophenyl)piperazin-1-yl]phenyl}-4-methoxybenzamide], the values for the inhibition at 1 µM in experiment [4] (setting [6]) and in experiment [5] (setting [7]) were 64% and 84%, respectively.

For `COc1ccc(C(=O)Nc2ccc(N3CCN(c4ccc(C)cn4)CC3)cc2)cn1` [Example 4, 6-Methoxy-N-[4-[4-(5-methyl-2-pyridyl)piperazin-1-yl]phenyl]pyridine-3-carboxamide], the figures for the inhibition at 1 µM in experiment [4] (setting [6]) and in experiment [5] (setting [7]) were 91% and 89%, respectively.

`Cc1cccc(C(=O)Nc2ccc(N3CCN(c4ccccn4)CC3)cn2)c1` [Example 54, 3-Methyl-N-(5-(4-(pyridin-2-yl)piperazin-1-yl)pyridin-2-yl)benzamide]: the inhibition at 1 µM in experiment [4] (setting [6]) was 90%; in experiment [5] (setting [7]), 82%.

On to `COc1ccc(C(=O)Nc2ccc(N3C[C@@H]4CN(c5ccccn5)C[C@H]4C3)cc2)cc1` [Example 133, 4-Methoxy-N-(4-((3aR,6aR)-5-(pyridin-2-yl)hexahydropyrrolo[3,4-c]pyrrol-2(1H)-yl)phenyl)benzamide], for which the inhibition at 1 µM is 84% in experiment [4] (setting [6]) and 85% in experiment [5] (setting [7]).

With `COc1ccc(C(=O)Nc2ccc(N3CCN(c4ccc(F)cn4)CC3)cc2)cc1` [Example 141, N-(4-(4-(5-Fluoropyridin-2-yl)piperazin-1-yl)phenyl)-4-methoxybenzamide], the results for the inhibition at 1 µM in experiment [4] (setting [6]) and in experiment [5] (setting [7]) were 94% and 96%, respectively.

In the case of `Cc1cccc(N2CCN(c3ccc(NC(=O)c4ccc(N(C)C)cc4)cc3)CC2)n1` [Example 30, 4-(Dimethylamino)-N-(4-(4-(6-methylpyridin-2-yl)piperazin-1-yl)phenyl)benzamide], the inhibition at 1 µM in experiment [4] (setting [6]) turned out to be 96%; in experiment [5] (setting [7]), 91%.

For `N#Cc1ccc(N2CCN(c3ccc(NC(=O)c4ccc(OCCF)cc4)cc3)CC2)cc1` [Example 117, N-[4-[4-(4-Cyanophenyl)piperazin-1-yl]phenyl]-4-(2-fluoroethoxy)benzamide], the inhibition at 1 µM in experiment [4] (setting [6]) stood at 88%; in experiment [5] (setting [7]), 90%.

Turning to `COc1ccc(C(=O)Nc2ccc(N3CCN(c4ccccn4)CC3)nc2)c(F)c1` [Example 34, 2-Fluoro-4-methoxy-N-[6-[4-(2-pyridyl)piperazin-1-yl]-3-pyridyl]benzamide], the inhibition at 1 µM in experiment [4] (setting [6]) was determined as 99%; in experiment [5] (setting [7]), 84%.

Consider `COc1ccc(C(=O)Nc2ccc(N3CCN(c4ccc(C#N)nc4)CC3)cc2)nc1` [Example 173, N-(4-(4-(6-Cyanopyridin-3-yl)piperazin-1-yl)phenyl)-5-methoxypicolinamide], for which the inhibition at 1 µM is 82% in experiment [4] (setting [6]) and 83% in experiment [5] (setting [7]).

Regarding `Cc1ccc(C(=O)Nc2cnc(N3CCN(c4ccccn4)CC3)cn2)nc1` [Example 90, 5-Methyl-N-(5-(4-(pyridin-2-yl)piperazin-1-yl)pyrazin-2-yl)picolinamide], the figures for the inhibition at 1 µM in experiment [4] (setting [6]) and in experiment [5] (setting [7]) were 74% and 85%, respectively.

Turning to `COc1ccc(C(=O)Nc2ccc(N3CCN(c4ccc(C#N)cc4)CC3)cc2)cc1` [Example 57, N-[4-[4-(4-Cyanophenyl)piperazin-1-yl]phenyl]-4-methoxy-benzamide], the inhibition at 1 µM in experiment [4] (setting [6]) was found to be 101%; in experiment [5] (setting [7]) it was 102%.

Turning to `COc1ccc(C(=O)Nc2ccc(N3CCN(c4cccc(F)c4)CC3)cc2)cc1` [Example 104, N-[4-[4-(3-Fluorophenyl)piperazin-1-yl]phenyl]-4-methoxy-benzamide], the inhibition at 1 µM stood at 100% in experiment [4] (setting [6]) and 98% in experiment [5] (setting [7]).

For the compound `N#Cc1ccc(N2CCN(c3ccc(NC(=O)c4ccc(OCCOCCF)cc4)cc3)CC2)nc1` [Example 121, N-(4-(4-(5-cyanopyridin-2-yl)piperazin-1-yl)phenyl)-4-(2-(2-fluoroethoxy)ethoxy)benzamide], the results for the inhibition at 1 µM in experiment [4] (setting [6]) and in experiment [5] (setting [7]) were 86% and 87%, respectively.

With `CC(C)(C)[Si](C)(C)OC(CF)COc1ccc(C(=O)Nc2ccc(N3CCN(c4cc(C#N)ccn4)CC3)cc2)cc1` (racemic) [Example 128, rac-4-(2-((tert-Butyldimethylsilyl)oxy)-3-fluoropropoxy)-N-(4-(4-(4-cyanopyridin-2-yl)piperazin-1-yl)phenyl)benzamide], the inhibition at 1 µM in experiment [4] came to 98%; in experiment [5], 92%.
